Data from ChEMBL document CHEMBL1121833, “Structure--sweetness relationship of L-aspartyl dipeptide analogues. A receptor site topology” (J Med Chem, 1981).

assay: Sweet potency as logarithm of sweet potency (log SP) relative to sucrose; type: functional

Row | Compound | Log SP
1 | CCC(CC)OC(=O)[C@@H](NC(=O)[C@H](N)CC(=O)O)C(=O)OC (stereo in doubt; 199) | 3.06
2 | CC(C)OC(=O)[C@@H](NC(=O)[C@H](N)CC(=O)O)C(C)C | 2.15
3 | CCSC[C@@H](NC(=O)[C@H](N)CC(=O)O)C(=O)OC | 1.6
4 | CCOC(=O)[C@H](CO)NC(=O)[C@H](N)CC(=O)O | 1.92
5 | COC(=O)[C@H](Cc1ccccc1)NC(=O)[C@@H](N)CC(=O)O | 2.11
6 | CCC(=O)OC[C@H](CC)NC(=O)[C@H](N)CC(=O)O | 1.48
7 | CCC(=O)OC[C@@H](NC(=O)[C@H](N)CC(=O)O)C(=O)OC | 1.53
8 | COC(=O)[C@@H](CC(=O)OC(C)(C)C)NC(=O)[C@H](N)CC(=O)O | 1.3
9 | CCC(=O)OC[C@@H](NC(=O)[C@H](N)CC(=O)O)C(C)C | 1.6
10 | N[C@H](CC(=O)O)C(=O)N[C@@H](CO)COC(=O)C1CCCC1 | 0.92
11 | COC(=O)C(NC(=O)[C@@H](N)CC(=O)O)C(=O)OC1CC(C)CC(C)(C)C1 (some centres undefined) | 2.76
12 | CCCC(O)[C@H](NC(=O)[C@H](N)CC(=O)O)C(=O)OC (stereo in doubt; 56) | 1.16
13 | N[C@H](CC(=O)O)C(=O)N[C@@H](CO)COC(=O)C1CC1 | 1.96
14 | CC[C@@H](COC(C)=O)NC(=O)[C@H](N)CC(=O)O | 1.16
15 | COC(=O)[C@@H](CCCCNC(C)=O)NC(=O)[C@H](N)CC(=O)O | 0.27
16 | CCCCC[C@H](C)NC(=O)[C@H](N)CC(=O)O (stereo in doubt; 10) | 1.43
17 | CC(C)COC(=O)[C@H](NC(=O)[C@@H](N)CC(=O)O)[C@H](C)O | 1.36
18 | CC(C)CC(=O)OC[C@H](C)NC(=O)[C@H](N)CC(=O)O | 2.08
19 | COC(=O)C(NC(=O)[C@@H](N)CC(=O)O)C(=O)OC1CCCC(C)C1 (some centres undefined) | 3.02
20 | COC(=O)C(NC(=O)[C@@H](N)CC(=O)O)C(C)c1ccccc1 (some centres undefined) | 0.95
21 | COC(=O)[C@@H](COC(C)(C)C)NC(=O)[C@H](N)CC(=O)O | 2.15
22 | COC(=O)[C@@H](COC(C)=O)NC(=O)[C@H](N)CC(=O)O | 0.91
23 | CCOC(=O)C[C@H](C)NC(=O)[C@H](N)CC(=O)O (stereo in doubt; 128) | 1.16

Row | Compound | Log SP
24 | CCC(C)OC(=O)CCNC(=O)[C@H](N)CC(=O)O (some centres undefined) | 0.73
25 | CC(C)COC(=O)[C@H](NC(=O)[C@@H](N)CC(=O)O)[C@@H](C)O | 1.97
26 | CC(C)(C)OC(=O)CCNC(=O)[C@H](N)CC(=O)O | 0.36
27 | COC(=O)[C@@H](CC1CCCCC1)NC(=O)[C@H](N)CC(=O)O | 2.3
28 | CCCCCCC(C)NC(=O)[C@H](N)CC(=O)O (some centres undefined) | 1.17
29 | CCOC(=O)C[C@H](C)NC(=O)[C@H](N)CC(=O)O (stereo in doubt; 133) | 0.88
30 | CC(C)C(=O)OC[C@H](CO)NC(=O)[C@H](N)CC(=O)O | 1.48
31 | C[C@@H](COc1ccccc1)NC(=O)[C@H](N)CC(=O)O | 1.19
32 | CC[C@@H](Cc1ccccc1)NC(=O)[C@H](N)CC(=O)O | 0.89
33 | N[C@H](CC(=O)O)C(=O)NCCOC(=O)C1CC1 | 1.03
34 | COC(=O)C(NC(=O)[C@@H](N)CC(=O)O)C(=O)OC1C(C)CCCC1C (some centres undefined) | 4.02
35 | CCC[C@H](NC(=O)[C@H](N)CC(=O)O)C(=O)OC(C)C | 1.43
36 | CC(C)C(=O)OC[C@H](C)NC(=O)[C@H](N)CC(=O)O | 1.98
37 | COC(=O)[C@H](NC(=O)[C@@H](N)CC(=O)O)[C@H](C)O | 1.26
38 | CCCC[C@@H](NC(=O)[C@H](N)CC(=O)O)C(=O)OC | 1.49
39 | C[C@@H](Cc1ccco1)NC(=O)[C@H](N)CC(=O)O | 1.16
40 | CC(C)OC(=O)[C@H](C)NC(=O)[C@H](N)CC(=O)O | 1.95
41 | CC(C)[C@@H](COC(=O)C1CCC1)NC(=O)[C@H](N)CC(=O)O | 1.06
42 | C=CC(=O)OC[C@H](C)NC(=O)[C@H](N)CC(=O)O | 1.85
43 | N[C@H](CC(=O)O)C(=O)NCCC(=O)OC1CCCCC1 | 1.22
44 | CCCC(O)[C@H](NC(=O)[C@H](N)CC(=O)O)C(=O)OC (stereo in doubt; 57) | 0.75
45 | N[C@H](CC(=O)O)C(=O)NCCC(=O)OC1CCCC1 | 1.16
46 | CC(Cc1ccccc1)NC(=O)[C@H](N)CC(=O)O (some centres undefined) | 1.56

Row | Compound | Log SP
47 | C[C@H](O)[C@@H](NC(=O)[C@@H](N)CC(=O)O)C(=O)OC1CCCCC1 | 1.31
48 | CC(C)OC(=O)C[C@H](C)NC(=O)[C@H](N)CC(=O)O | 0.84
49 | CCC[C@@H](COC(C)=O)NC(=O)[C@H](N)CC(=O)O | 0.66
50 | CCC(CC)C(=O)OC[C@H](C)NC(=O)[C@H](N)CC(=O)O | 1.53
51 | CCC(=O)OC[C@H](COC)NC(=O)[C@H](N)CC(=O)O | 1.21
52 | CCOC(=O)[C@H](NC(=O)[C@@H](N)CC(=O)O)[C@@H](C)O | 0.66
53 | CC(C)OC(=O)CCNC(=O)[C@H](N)CC(=O)O | 0.7
54 | COC(=O)[C@H](C)NC(=O)[C@H](N)CC(=O)O | 1.2
55 | COC(=O)C[C@@H](NC(=O)[C@H](N)CC(=O)O)C(=O)OC | 0.6
56 | COC(=O)CNC(=O)[C@H](N)CC(=O)O | 0.68
57 | COC(=O)CCCNC(=O)[C@H](N)CC(=O)O | 0.13
58 | CCCC(=O)OC[C@H](C)NC(=O)[C@H](N)CC(=O)O | 1.58
59 | CCCOC(=O)[C@H](CC)NC(=O)[C@H](N)CC(=O)O | 1.86
60 | CCC(CC)OC(=O)[C@@H](NC(=O)[C@H](N)CC(=O)O)C(=O)OC (stereo in doubt; 198) | 2.79
61 | N[C@H](CC(=O)O)C(=O)NCCC1CCCCC1 | 0.85
62 | CCCSC[C@@H](NC(=O)[C@H](N)CC(=O)O)C(=O)OC | 2.11
63 | COC[C@@H](COC(C)=O)NC(=O)[C@H](N)CC(=O)O | 0.48
64 | COC(=O)[C@H](NC(=O)[C@H](N)CC(=O)O)C(=O)OC1CCCCC1 | 3.14
65 | CCOC(=O)[C@H](C)NC(=O)[C@H](N)CC(=O)O | 1.75
66 | COC(=O)[C@@H](Cc1ccc(O)cc1)NC(=O)[C@H](N)CC(=O)O | 2.15
67 | CCCCC(=O)OC[C@H](C)NC(=O)[C@H](N)CC(=O)O | 0.6
68 | CC(C)OC(=O)[C@H](NC(=O)[C@@H](N)CC(=O)O)[C@H](C)O | 0.91
69 | CCCCC[C@H](C)NC(=O)[C@H](N)CC(=O)O (stereo in doubt; 12) | 1.56

Row | Compound | Log SP
70 | CC(C)(Cc1ccccc1)NC(=O)[C@H](N)CC(=O)O | 1.19
71 | COC(=O)[C@H](CO)NC(=O)[C@H](N)CC(=O)O | 1.49
72 | CCC(C)[C@@H](NC(=O)[C@@H](N)CC(=O)O)C(=O)OC(C)C (some centres undefined) | 0.53
73 | CCCCOC(=O)[C@H](CO)NC(=O)[C@H](N)CC(=O)O | 1.75
74 | COC(=O)[C@H](NC(=O)[C@H](N)CC(=O)O)C(=O)OC1CCC(C)CC1 (some centres undefined) | 1.87
75 | CC1CCC1C(=O)OC[C@H](C)NC(=O)[C@H](N)CC(=O)O (some centres undefined) | 2.13
76 | CCCOC(=O)[C@H](C)NC(=O)[C@H](N)CC(=O)O | 2.1
77 | CC(CNC(=O)[C@H](N)CC(=O)O)C(=O)OC1CCCC1 (some centres undefined) | 0.88
78 | COC(=O)CCNC(=O)[C@H](N)CC(=O)O | 0.11
79 | COC(=O)[C@H](NC(=O)[C@@H](N)CC(=O)O)[C@@H](C)O | 0.71
80 | N[C@H](CC(=O)O)C(=O)NCCc1ccc(F)cc1 | 0.57
81 | CCC[C@@H](NC(=O)[C@H](N)CC(=O)O)C(=O)OC | 0.46
82 | CCC(=O)OC[C@H](C)NC(=O)[C@H](N)CC(=O)O | 1.86
83 | C[C@@H](COC(=O)C(C)(C)C)NC(=O)[C@H](N)CC(=O)O | 2.28
84 | COC(=O)[C@@H](COC(=O)C(C)(C)C)NC(=O)[C@H](N)CC(=O)O | 1.81
85 | CCCCCC[C@@H](NC(=O)[C@H](N)CC(=O)O)C(=O)OC | 2.07
86 | CCCCOC(=O)[C@H](C)NC(=O)[C@H](N)CC(=O)O | 0.9
87 | CC(=O)OC[C@H](C)NC(=O)[C@H](N)CC(=O)O | 1.61
88 | CC(CNC(=O)[C@H](N)CC(=O)O)C(=O)OC(C)(C)C (some centres undefined) | 0.51
89 | CCCCC[C@@H](NC(=O)[C@H](N)CC(=O)O)C(=O)OC | 1.9
90 | CC(=O)OC[C@@H](NC(=O)[C@H](N)CC(=O)O)C(C)C | 1.58
91 | CC(C)CC(=O)OC[C@H](CO)NC(=O)[C@H](N)CC(=O)O | 1.3
92 | CCOCC[C@H](C)NC(=O)[C@H](N)CC(=O)O | 1.14

Row | Compound | Log SP
93 | CCCC(=O)OC[C@@H](NC(=O)[C@H](N)CC(=O)O)C(=O)OC | 1.43
94 | COC(=O)[C@@H](CCC(C)C)NC(=O)[C@H](N)CC(=O)O | 2.11
95 | CCOC(=O)[C@H](NC(=O)[C@@H](N)CC(=O)O)[C@H](C)O | 1.93
96 | CC[C@H](NC(=O)[C@H](N)CC(=O)O)C(=O)OC | 1.04
97 | CCCC[C@H](C)NC(=O)[C@H](N)CC(=O)O | 1.6
98 | CC(CNC(=O)[C@H](N)CC(=O)O)C(=O)OC1CCCCC1 (some centres undefined) | 0.94
99 | CCOC(=O)[C@H](NC(=O)[C@H](N)CC(=O)O)C(=O)OC1CCCCC1 | 2.68
100 | C[C@@H](Cc1ccc(F)cc1)NC(=O)[C@H](N)CC(=O)O | 1.5
101 | CCC(C)OC(=O)C[C@H](C)NC(=O)[C@H](N)CC(=O)O (some centres undefined) | 0.6
102 | CCC(=O)OC[C@H](CO)NC(=O)[C@H](N)CC(=O)O | 1.99
103 | CCCC(=O)OC[C@@H](NC(=O)[C@H](N)CC(=O)O)C(C)C | 0.4
104 | C[C@@H](CC(=O)OC(C)(C)C)NC(=O)[C@H](N)CC(=O)O | 0.68
105 | CCC(C)C(=O)OC[C@H](CO)NC(=O)[C@H](N)CC(=O)O (some centres undefined) | 1.21
106 | CC(C)COC(=O)[C@H](CO)NC(=O)[C@H](N)CC(=O)O | 2.21
107 | CCC(CC)OC(=O)CCNC(=O)[C@H](N)CC(=O)O | 0.6
108 | CC1CC1C(=O)OC[C@H](C)NC(=O)[C@H](N)CC(=O)O (some centres undefined) | 1.68
109 | CCCCCOC(=O)[C@H](C)NC(=O)[C@H](N)CC(=O)O | 0.68
110 | CCCOC(=O)[C@H](NC(=O)[C@@H](N)CC(=O)O)[C@H](C)O | 1.51
111 | CCC(=O)OCCNC(=O)[C@H](N)CC(=O)O | 0.61
112 | CCCC(=O)OC[C@H](CO)NC(=O)[C@H](N)CC(=O)O | 0.58
113 | COC(=O)C(NC(=O)[C@@H](N)CC(=O)O)C(=O)OC1CC2CCC1(C)C2(C)C (some centres undefined) | 3.16
114 | COC(=O)[C@@H](CSC(C)(C)C)NC(=O)[C@H](N)CC(=O)O | 2.95
